Source: US12617779B2, “Self degradation-type CDK9 inhibitor prodrug and liposome encapsulating same” (Sumitomo Pharma Co., Ltd., priority 2021, dated 2026)

Legend:
[1] = Evaluation of conversion rate to active form in buffer solution (Experimental Example 1); assay type: physicochemical; conditions: for Production rate of Alvocidib / Residual rate: 37° C., 25 umol/L in buffer solution; for Stability in buffer solution at pH 5: pH 5, 37° C., up to 2 or 3 hours; for Conversion to Alvocidib at pH 7.4: pH 7.4, 37° C., up to 3 hours
Procedure, shortened: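 25 umol/L cpd, 37° C; 50 mM citrate pH 5.0/5.5, 50 mM phosphate pH 6.0/6.5/7.0/7.4. HPLC at 0–3 h: residual rate and Alvocidib production rate.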

[2] = Pharmacokinetic test, intravenous solution and liposome formulations in mice (Experimental Example 6); assay type: in vivo; conditions: female BALB/c mice
Description: This was used as a solution formulation.
This was used as a liposome formulation.
Hydrogenated soybean phosphatidylcholine (COATSOME NC-21E, manufactured by NOF CORPORATION, 3.238 g), cholesterol (manufactured by Sigma, 1.160 g) and 1,2-disteroyl-rac-glycero-3-methylpolyoxyethylen 2000 (SUNBRIGHT GS-020, manufactured by NOF CORPORATION, 0.983 g) were dissolved in tert-butyl alcohol (300 mL) warmed to 65° C. The solution was placed in an eggplant flask and frozen in a dry ice-acetone bath, and then the tert-butyl alcohol was removed by evaporation under reduced pressure to give a lipid mixture.
To the above lipid mixture was added to a 250 mM ammonium sulfate solution (100 mL), and the mixture was warmed to 65° C., and dispersed by a homogenizer (ULTRA-TURRAX, manufactured by IKA) to give a crude liposome dispersion. […] The solution was filtered through a 0.22 μm membrane filter to adjust the total lipid concentration to 75 mM (75 μmol/mL). […] The solution was adjusted to pH 5 to 6 with 1 mol/L aqueous sodium hydroxide solution, warmed in a 65° C. water bath for 3 minutes, and ice-cooled. The liposome outer solution was replaced with 10 mM tartrate buffer solution/10% sucrose solution (pH 4) using a dialysis cassette (Slide-A-Lyzer G2 Dialysis Cassettes 20K MWCO, manufactured by Thermo Scientific), followed by filtration through a 0.22 μm membrane filter to adjust the concentration.
The solution formulation or liposome formulation was instantly administered intravenously to 7-week-old female BALB/c mice, and the blood was collected over time from the jugular vein without anesthesia up to 24 hours after administration for the solution formulation administration group and up to 72 hours after administration for the liposome formulation administration group. […] The plasma sample was centrifuged, and the concentrations of the test compound and Alvocidib in the obtained supernatant were determined by LC-MS/MS.

In the case of CCN(C[C@H]1CCCCN1)C(=O)Oc1cc(O)c2c(=O)cc(-c3ccccc3Cl)oc2c1[C@H]1CCN(C)C[C@H]1O [Example 2, 2-(2-chlorophenyl)-5-hydroxy-8-[(3S,4R)-3-hydroxy-1-methylpiperidin-4-yl]-4-oxo-4H-1-benzopyran-7-yl ethyl{[(2R)-piperidin-2-yl]methyl}carbamate], the “Production rate of Alvocidib” value ([1]; pH5.0, 0 hr) is reported as 0.0%, the Residual rate ([1]; pH5.0, 0 hr) is reported as 95.5% and the “Stability in buffer solution at pH 5” value [1] is reported as “stable”. For the same compound, the “Production rate of Alvocidib” value ([1]; pH5.0, 0.5 hr) was 0.3%, the Residual rate ([1]; pH5.0, 0.5 hr) was 95.4% and the “Production rate of Alvocidib” value ([1]; pH5.0, 1 hr) was 0.5%. The Residual rate ([1]; pH5.0, 1 hr) was 95.1%, the “Production rate of Alvocidib” value ([1]; pH5.0, 2 hr) was 1.1% and the Residual rate ([1]; pH5.0, 2 hr) was 94.7%. The “Production rate of Alvocidib” value ([1]; pH5.0, 3 hr) was 1.6%, the Residual rate ([1]; pH5.0, 3 hr) was 94.1% and the “Production rate of Alvocidib” value ([1]; pH5.5, 0 hr) was 0.0%. For the same compound, the Residual rate ([1]; pH5.5, 0 hr) was 95.8%, the “Production rate of Alvocidib” value ([1]; pH5.5, 0.5 hr) was 0.8% and the Residual rate ([1]; pH5.5, 0.5 hr) was 95.1%. The “Production rate of Alvocidib” value ([1]; pH5.5, 1 hr) was 1.7%, the Residual rate ([1]; pH5.5, 1 hr) was 94.3% and the “Production rate of Alvocidib” value ([1]; pH5.5, 2 hr) was 3.2%. For the same compound, the Residual rate ([1]; pH5.5, 2 hr) was 92.5%, the “Production rate of Alvocidib” value ([1]; pH5.5, 3 hr) was 5.3% and the Residual rate ([1]; pH5.5, 3 hr) was 90.4%. For the same compound, the “Production rate of Alvocidib” value ([1]; pH6.0, 0 hr) was 0.0%, the Residual rate ([1]; pH6.0, 0 hr) was 95.5% and the “Production rate of Alvocidib” value ([1]; pH6.0, 0.5 hr) was 2.9%. The Residual rate ([1]; pH6.0, 0.5 hr) was 93.0%, the “Production rate of Alvocidib” value ([1]; pH6.0, 1 hr) was 5.7% and the Residual rate ([1]; pH6.0, 1 hr) was 89.6%. For the same compound, the “Production rate of Alvocidib” value ([1]; pH6.0, 2 hr) was 11.1%, the Residual rate ([1]; pH6.0, 2 hr) was 81.0% and the “Production rate of Alvocidib” value ([1]; pH6.0, 3 hr) was 15.7%. The Residual rate ([1]; pH6.0, 3 hr) was 74.5%, the “Production rate of Alvocidib” value ([1]; pH6.5, 0 hr) was 0.0% and the Residual rate ([1]; pH6.5, 0 hr) was 95.9%. For the same compound, the “Production rate of Alvocidib” value ([1]; pH6.5, 0.5 hr) was 7.9%, the Residual rate ([1]; pH6.5, 0.5 hr) was 87.4% and the “Production rate of Alvocidib” value ([1]; pH6.5, 1 hr) was 15.1%. The Residual rate ([1]; pH6.5, 1 hr) was 75.4%, the “Production rate of Alvocidib” value ([1]; pH6.5, 2 hr) was 27.2% and the Residual rate ([1]; pH6.5, 2 hr) was 57.4%. For the same compound, the “Production rate of Alvocidib” value ([1]; pH6.5, 3 hr) was 36.1%, the Residual rate ([1]; pH6.5, 3 hr) was 45.1% and the “Production rate of Alvocidib” value ([1]; pH7.0, 0 hr) was 0.0%. The Residual rate ([1]; pH7.0, 0 hr) was 95.4%, the “Production rate of Alvocidib” value ([1]; pH7.0, 0.5 hr) was 21.0% and the Residual rate ([1]; pH7.0, 0.5 hr) was 66.7%. For the same compound, the “Production rate of Alvocidib” value ([1]; pH7.0, 1 hr) was 38.0%, the Residual rate ([1]; pH7.0, 1 hr) was 44.8% and the “Production rate of Alvocidib” value ([1]; pH7.0, 2 hr) was 53.4%. The Residual rate ([1]; pH7.0, 2 hr) was 19.9%, the “Production rate of Alvocidib” value ([1]; pH7.0, 3 hr) was 60.8% and the Residual rate ([1]; pH7.0, 3 hr) was 9.8%. For the same compound, the “Production rate of Alvocidib” value ([1]; pH7.4, 0 hr) was 0.2%, the Residual rate ([1]; pH7.4, 0 hr) was 95.4% and the “Conversion to Alvocidib at pH 7.4” value [1] was “rapidly converted to Alvocidib”. The “Production rate of Alvocidib” value ([1]; pH7.4, 0.5 hr) was 38.7%, the Residual rate ([1]; pH7.4, 0.5 hr) was 41.7% and the “Production rate of Alvocidib” value ([1]; pH7.4, 1 hr) was 56.4%. For the same compound, the Residual rate ([1]; pH7.4, 1 hr) was 17.1%, the “Production rate of Alvocidib” value ([1]; pH7.4, 2 hr) was 66.0% and the Residual rate ([1]; pH7.4, 2 hr) was 3.5%. For the same compound, the “Production rate of Alvocidib” value ([1]; pH7.4, 3 hr) was 67.6%, the Residual rate ([1]; pH7.4, 3 hr) was 1.5% and the “Blood retention of liposome formulation compared with the corresponding solution formulation” value [2] was “higher blood retention”.

With CN1CC[C@H](c2c(OC(=O)N(C)C[C@@H]3CCCCN3)cc(O)c3c(=O)cc(-c4ccccc4Cl)oc23)[C@H](O)C1 [Example 3, 2-(2-chlorophenyl)-5-hydroxy-8-[(3S,4R)-3-hydroxy-1-methylpiperidin-4-yl]-4-oxo-4H-1-benzopyran-7-yl methyl{[(2S)-piperidin-2-yl]methyl}carbamate] the “Production rate of Alvocidib” value ([1]; pH5.0, 0 hr) was 0.2%, the Residual rate ([1]; pH5.0, 0 hr) was 99.8% and the “Stability in buffer solution at pH 5” value [1] was “stable”. The “Production rate of Alvocidib” value ([1]; pH5.0, 0.5 hr) was 0.9%, the Residual rate ([1]; pH5.0, 0.5 hr) was 99.1% and the “Production rate of Alvocidib” value ([1]; pH5.0, 1 hr) was 1.3%. The Residual rate ([1]; pH5.0, 1 hr) was 98.7%, the “Production rate of Alvocidib” value ([1]; pH5.0, 2 hr) was 2.2% and the Residual rate ([1]; pH5.0, 2 hr) was 97.8%. For the same compound, the “Production rate of Alvocidib” value ([1]; pH5.0, 3 hr) was 3.1%, the Residual rate ([1]; pH5.0, 3 hr) was 96.9% and the “Production rate of Alvocidib” value ([1]; pH5.5, 0 hr) was 0.3%. The Residual rate ([1]; pH5.5, 0 hr) was 99.7%, the “Production rate of Alvocidib” value ([1]; pH5.5, 0.5 hr) was 1.8% and the Residual rate ([1]; pH5.5, 0.5 hr) was 98.2%. For the same compound, the “Production rate of Alvocidib” value ([1]; pH5.5, 1 hr) was 2.7%, the Residual rate ([1]; pH5.5, 1 hr) was 97.3% and the “Production rate of Alvocidib” value ([1]; pH5.5, 2 hr) was 4.7%. For the same compound, the Residual rate ([1]; pH5.5, 2 hr) was 95.3%, the “Production rate of Alvocidib” value ([1]; pH5.5, 3 hr) was 6.5% and the Residual rate ([1]; pH5.5, 3 hr) was 93.5%. The “Production rate of Alvocidib” value ([1]; pH6.0, 0 hr) was 0.3%, the Residual rate ([1]; pH6.0, 0 hr) was 99.7% and the “Production rate of Alvocidib” value ([1]; pH6.0, 0.5 hr) was 4.5%. For the same compound, the Residual rate ([1]; pH6.0, 0.5 hr) was 95.5%, the “Production rate of Alvocidib” value ([1]; pH6.0, 1 hr) was 7.6% and the Residual rate ([1]; pH6.0, 1 hr) was 92.2%. For the same compound, the “Production rate of Alvocidib” value ([1]; pH6.0, 2 hr) was 14.1%, the Residual rate ([1]; pH6.0, 2 hr) was 85.3% and the “Production rate of Alvocidib” value ([1]; pH6.0, 3 hr) was 19.8%. For the same compound, the Residual rate ([1]; pH6.0, 3 hr) was 79.4%, the “Production rate of Alvocidib” value ([1]; pH6.5, 0 hr) was 0.3% and the Residual rate ([1]; pH6.5, 0 hr) was 99.7%. For the same compound, the “Production rate of Alvocidib” value ([1]; pH6.5, 0.5 hr) was 10.6%, the Residual rate ([1]; pH6.5, 0.5 hr) was 88.9% and the “Production rate of Alvocidib” value ([1]; pH6.5, 1 hr) was 18.3%. The Residual rate ([1]; pH6.5, 1 hr) was 80.9%, the “Production rate of Alvocidib” value ([1]; pH6.5, 2 hr) was 33.5% and the Residual rate ([1]; pH6.5, 2 hr) was 65.3%. The “Production rate of Alvocidib” value ([1]; pH6.5, 3 hr) was 44.6%, the Residual rate ([1]; pH6.5, 3 hr) was 53.9% and the “Production rate of Alvocidib” value ([1]; pH7.0, 0 hr) was 0.6%. For the same compound, the Residual rate ([1]; pH7.0, 0 hr) was 99.4%, the “Production rate of Alvocidib” value ([1]; pH7.0, 0.5 hr) was 26.8% and the Residual rate ([1]; pH7.0, 0.5 hr) was 72.2%. For the same compound, the “Production rate of Alvocidib” value ([1]; pH7.0, 1 hr) was 43.2%, the Residual rate ([1]; pH7.0, 1 hr) was 55.3% and the “Production rate of Alvocidib” value ([1]; pH7.0, 2 hr) was 65.2%. The Residual rate ([1]; pH7.0, 2 hr) was 20.2%, the “Production rate of Alvocidib” value ([1]; pH7.0, 3 hr) was 74.5% and the Residual rate ([1]; pH7.0, 3 hr) was 8.0%. For the same compound, the “Production rate of Alvocidib” value ([1]; pH7.4, 0 hr) was 0.9%, the Residual rate ([1]; pH7.4, 0 hr) was 99.1% and the “Conversion to Alvocidib at pH 7.4” value [1] was “rapidly converted to Alvocidib”. For the same compound, the “Production rate of Alvocidib” value ([1]; pH7.4, 0.5 hr) was 49.0%, the Residual rate ([1]; pH7.4, 0.5 hr) was 49.4% and the “Production rate of Alvocidib” value ([1]; pH7.4, 1 hr) was 67.8%. For the same compound, the Residual rate ([1]; pH7.4, 1 hr) was 17.0%, the “Production rate of Alvocidib” value ([1]; pH7.4, 2 hr) was 80.4% and the Residual rate ([1]; pH7.4, 2 hr) was 0.0%. For the same compound, the “Production rate of Alvocidib” value ([1]; pH7.4, 3 hr) was 82.5%, the Residual rate ([1]; pH7.4, 3 hr) was 0.0% and the “Blood retention of liposome formulation compared with the corresponding solution formulation” value [2] was “higher blood retention”.
